Assay results as given in ChEMBL document CHEMBL5113422, “Structure-based rational design enables efficient discovery of a new selective and potent AKT PROTAC degrader” (Eur J Med Chem, 2022).
Activity calls are given as the source filed them. No cut-off for these calls is given here.

Tests used:
[1] = system: JeKo-1; assay: Antiproliferative activity against human Jeko-1 cells expressing CRBN-knockout assessed as cell viability measured after 7 days by CCK-8 assay; assay type: functional, cell-based; settings: JeKo-1, 168 h
[2] = system: MM1.S; assay: Antiproliferative activity against human MM1.S cells assessed as cell viability measured after 3 days by CCK-8 assay; assay type: functional, cell-based; settings: 72 h
[3] = Antiproliferative activity against human Mino cells assessed as cell viability measured after 7 days by CCK-8 assay; assay type: functional, cell-based; settings: 168 h
[4] = system: MM1.S; assay: Antiproliferative activity against human MM1.S cells assessed as cell viability measured after 7 days by CCK-8 assay; assay type: functional, cell-based; settings: 168 h
[5] = system: JeKo-1; assay: Antiproliferative activity against human Jeko-1 cells assessed as cell viability measured after 7 days by CCK-8 assay; assay type: functional, cell-based; settings: JeKo-1, 168 h
[6] = molecular target: T1, Protein cereblon/AKT (Homo sapiens, UniProt P31751+Q9Y243+P31749+Q96SW2); assay: Protac activity at CRBN/Akt in human Jeko-1 cells assessed as Akt degradation at 250 nM after 24 hrs by immunoblot analysis relative to control; assay type: cell-based
T1 sequence (P31751 whole entry): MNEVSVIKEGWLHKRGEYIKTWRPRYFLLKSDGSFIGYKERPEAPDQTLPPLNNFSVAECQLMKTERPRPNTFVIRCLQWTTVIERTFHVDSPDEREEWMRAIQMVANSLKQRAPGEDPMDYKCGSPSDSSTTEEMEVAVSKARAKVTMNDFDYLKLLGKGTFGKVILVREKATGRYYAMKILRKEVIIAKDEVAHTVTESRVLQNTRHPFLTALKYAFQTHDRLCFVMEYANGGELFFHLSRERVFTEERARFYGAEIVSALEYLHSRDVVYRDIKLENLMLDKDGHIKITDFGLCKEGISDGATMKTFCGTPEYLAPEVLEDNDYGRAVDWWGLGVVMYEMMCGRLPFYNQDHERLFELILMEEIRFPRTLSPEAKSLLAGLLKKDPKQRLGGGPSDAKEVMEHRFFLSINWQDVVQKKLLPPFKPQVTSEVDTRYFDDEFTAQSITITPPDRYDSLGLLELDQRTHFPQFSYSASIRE
T1 sequence (Q9Y243 whole entry): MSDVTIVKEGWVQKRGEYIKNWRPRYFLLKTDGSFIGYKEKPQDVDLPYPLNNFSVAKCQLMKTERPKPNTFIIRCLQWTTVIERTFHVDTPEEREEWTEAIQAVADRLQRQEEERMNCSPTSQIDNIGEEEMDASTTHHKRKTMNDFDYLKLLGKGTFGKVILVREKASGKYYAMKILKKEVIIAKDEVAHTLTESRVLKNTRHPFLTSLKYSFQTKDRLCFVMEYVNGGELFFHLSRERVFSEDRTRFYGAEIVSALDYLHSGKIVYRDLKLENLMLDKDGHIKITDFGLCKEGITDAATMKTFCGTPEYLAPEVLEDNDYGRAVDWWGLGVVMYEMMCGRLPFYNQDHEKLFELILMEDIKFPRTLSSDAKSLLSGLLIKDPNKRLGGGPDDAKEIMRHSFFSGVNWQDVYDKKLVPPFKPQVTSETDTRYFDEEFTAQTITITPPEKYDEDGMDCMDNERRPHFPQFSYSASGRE
T1 sequence (P31749 whole entry): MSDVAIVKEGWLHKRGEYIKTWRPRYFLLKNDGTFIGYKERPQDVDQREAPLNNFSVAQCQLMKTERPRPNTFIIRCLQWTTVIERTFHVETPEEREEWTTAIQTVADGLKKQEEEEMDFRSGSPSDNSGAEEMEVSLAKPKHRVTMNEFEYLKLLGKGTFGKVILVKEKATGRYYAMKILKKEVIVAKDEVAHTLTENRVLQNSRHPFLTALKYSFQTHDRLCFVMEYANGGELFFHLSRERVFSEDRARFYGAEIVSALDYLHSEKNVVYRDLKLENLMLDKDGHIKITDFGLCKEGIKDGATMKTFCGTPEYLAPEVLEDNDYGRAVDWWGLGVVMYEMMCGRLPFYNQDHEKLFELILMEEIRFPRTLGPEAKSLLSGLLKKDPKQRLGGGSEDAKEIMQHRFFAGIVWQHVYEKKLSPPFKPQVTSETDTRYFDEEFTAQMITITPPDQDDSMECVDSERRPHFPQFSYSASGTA
T1 sequence (Q96SW2 whole entry): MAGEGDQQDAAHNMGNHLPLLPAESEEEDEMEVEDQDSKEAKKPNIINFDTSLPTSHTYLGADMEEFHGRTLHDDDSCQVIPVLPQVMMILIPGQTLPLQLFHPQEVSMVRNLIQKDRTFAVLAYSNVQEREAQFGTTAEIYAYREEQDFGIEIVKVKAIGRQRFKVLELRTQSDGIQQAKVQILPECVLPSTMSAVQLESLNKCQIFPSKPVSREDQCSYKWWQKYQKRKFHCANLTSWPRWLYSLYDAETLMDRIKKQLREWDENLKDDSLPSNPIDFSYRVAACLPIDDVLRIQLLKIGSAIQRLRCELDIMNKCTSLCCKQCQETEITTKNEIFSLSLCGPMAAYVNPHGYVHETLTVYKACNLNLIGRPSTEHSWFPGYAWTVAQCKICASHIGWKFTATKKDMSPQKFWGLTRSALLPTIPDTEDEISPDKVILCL

[7] = molecular target: Protein cereblon/Zinc finger protein Aiolos (Homo sapiens) (UniProt Q96SW2+Q9UKT9); assay: Protac activity at CRBN/IKZF3 in human Jeko-1 cells assessed as IKZF3 degradation at 500 nM after 12 hrs by immunoblot analysis; assay type: cell-based
Protein cereblon/Zinc finger protein Aiolos (Homo sapiens), sequence (Q96SW2 whole entry, looked up): as the sequence (Q96SW2 whole entry) above
Protein cereblon/Zinc finger protein Aiolos (Homo sapiens), sequence (Q9UKT9 whole entry, looked up): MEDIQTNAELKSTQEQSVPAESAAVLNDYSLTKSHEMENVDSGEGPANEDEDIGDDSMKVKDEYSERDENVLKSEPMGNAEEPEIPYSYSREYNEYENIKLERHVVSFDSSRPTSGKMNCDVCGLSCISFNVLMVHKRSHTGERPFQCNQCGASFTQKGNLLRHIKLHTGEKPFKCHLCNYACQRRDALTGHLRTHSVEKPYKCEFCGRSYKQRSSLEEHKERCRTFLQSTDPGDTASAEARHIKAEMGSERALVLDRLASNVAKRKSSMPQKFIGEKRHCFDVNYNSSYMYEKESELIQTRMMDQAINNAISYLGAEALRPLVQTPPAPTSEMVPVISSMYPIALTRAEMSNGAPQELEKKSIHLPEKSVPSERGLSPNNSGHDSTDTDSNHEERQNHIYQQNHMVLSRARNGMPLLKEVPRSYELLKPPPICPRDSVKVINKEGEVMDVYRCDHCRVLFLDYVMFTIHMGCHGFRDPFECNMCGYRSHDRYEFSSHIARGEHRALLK

[8] = molecular target: T1, Protein cereblon/AKT; assay: Protac activity at CRBN/Akt in human Jeko-1 cells assessed as Akt degradation at 250 nM after 2 hrs by immunoblot analysis; assay type: cell-based
[9] = molecular target: T1, Protein cereblon/AKT; assay: Protac activity at CRBN/Akt in human Jeko-1 cells assessed as decrease in Myc level after 24 hrs cotreated with Ibrutinib by immunoblot analysis; assay type: cell-based
[10] = system: JeKo-1; assay: Antiproliferative activity against human Jeko-1 cells assessed as cell viability measured after 3 days cotreated with Ibrutinib by CCK-8 assay; assay type: functional, cell-based; settings: time 3.0 day
[11] = molecular target: T1, Protein cereblon/AKT; assay: Protac activity at CRBN/Akt in human Jeko-1 cells assessed as decrease in phosphorylated GSK3beta level after 24 hrs by immunoblot analysis; assay type: cell-based; settings: dose 10-1000 nM
[12] = molecular target: Protein cereblon/RAC-alpha serine/threonine-protein kinase (Homo sapiens) (UniProt P31749+Q96SW2); assay: Protac activity at CRBN/Akt1 in human Jeko-1 cells assessed as Akt1 degradation at 500 nM after 12 hrs by immunoblot analysis; assay type: cell-based
Protein cereblon/RAC-alpha serine/threonine-protein kinase (Homo sapiens), sequence (P31749 whole entry, looked up): as the sequence (P31749 whole entry) above
Protein cereblon/RAC-alpha serine/threonine-protein kinase (Homo sapiens), sequence (Q96SW2 whole entry, looked up): as the sequence (Q96SW2 whole entry) above

[13] = molecular target: T1, Protein cereblon/AKT; assay: Protac activity at CRBN/Akt in human Jeko-1 cells assessed as Akt degradation after 24 hrs by immunoblot analysis relative to control; assay type: cell-based
[14] = molecular target: Protein cereblon/RAC-beta serine/threonine-protein kinase (Homo sapiens) (UniProt P31751+Q96SW2); assay: Protac activity at CRBN/Akt2 in human Jeko-1 cells assessed as Akt2 degradation at 500 nM after 12 hrs by immunoblot analysis; assay type: cell-based
Protein cereblon/RAC-beta serine/threonine-protein kinase (Homo sapiens), sequence (P31751 whole entry, looked up): as the sequence (P31751 whole entry) above
Protein cereblon/RAC-beta serine/threonine-protein kinase (Homo sapiens), sequence (Q96SW2 whole entry, looked up): as the sequence (Q96SW2 whole entry) above

| IC50 [2] [nM] | IC50 [4] [nM] | Activity [6] [%] | Activity [7] | Activity [8] | Activity [9] | Activity [11] | Activity [12] | DC50 [13] [nM] | Activity [14] | Compound | IC50 [1] [nM] | IC50 [3] [nM] | IC50 [5] [nM] | Activity [10] |
| --- | --- | --- | --- | --- | --- | --- | --- | --- | --- | --- | --- | --- | --- | --- |
| 838 | 21.9 |  |  |  |  |  |  |  |  | Nc1cccc2c1C(=O)N(C1CCC(=O)NC1=O)C2=O (stereo not given) [POMALIDOMIDE] | > 20000 | 16500 | 2620 |  |
|  |  | 95 |  |  |  |  |  |  |  | Cn1ncc(Cl)c1-c1ccc(C(=O)N[C@@H]2CN[C@H](CC(=O)Nc3ccc(OCCOCCOCCNc4cccc5c4C(=O)N(C4CCC(=O)NC4=O)C5=O)cc3)C[C@H]2c2cccc(F)c2)s1 (stereo not given in full) |  |  |  |  |
| 72.9 | 72.4 |  |  |  |  |  |  |  |  | CNC(=O)C[C@@H]1C[C@@H](c2cccc(F)c2)[C@H](NC(=O)c2ccc(-c3c(Cl)cnn3C)s2)CN1 | 350 | 3370 | 506 |  |
| > 20000 | 70.2 |  |  |  |  |  |  |  |  | Nc1cccc2c1CN(C1CCC(=O)NC1=O)C2=O (stereo not given) [LENALIDOMIDE] | > 20000 | > 20000 | > 20000 |  |
| 79 | 23.4 | 95 | Active | Active | Active | Active | Active | 28 | Active | Cn1ncc(Cl)c1-c1cc(C(=O)N[C@@H]2CN[C@H](CC(=O)Nc3ccc(OCCOCCOCCNc4cccc5c4C(=O)N(C4CCC(=O)NC4=O)C5=O)cc3)C[C@H]2c2cccc(F)c2)oc1Cl (stereo not given in full) | 2320 | 2270 | 205 | Active |
| 4790 | 40.3 |  |  |  |  |  |  |  |  | COCCOCCOCCNc1cccc2c1C(=O)N(C1CCC(=O)NC1=O)C2=O (stereo not given) | > 20000 | > 20000 | > 20000 |  |
